{"source": "patent US5495005A", "about": "“Synthesis and pharmacological activity of a series of novel xanthone derivatives” (National Science Council, priority 1993, dated 1996)", "key": {"[1]": {"test_system": "rabbit platelet", "assay": "collagen-induced aggregation of washed rabbit platelets (turbidimetry)", "assay_type": "cell-based", "settings": "comparison with norathyrol", "procedure": "It is known that ADP, arachidonic acid, PAF and collagen treatment will lead to the aggregation of rabbit platelet. […] Using 10 μg/ml of collagen as inducer of platelet aggregation, tile replacement of the methoxy or hydroxy group on the C-3 by the 3-propylamino-2-hydroxypropoxyl group increases the inhibitory effect on platelet aggregation. The reaction mechanisms of 1,3,6,7,-tetraoxygenated xanthones and 3,4-dihydroxygenated xanthone inhibit the formation of A2 -thromboxane and the degradation of phosphoinositide, and inhibit the activity of A2 -thromboxane, respectively.\nBased on the method of Teng et. al. (Ouyang, C. Biochem. Biophys. Acta. 1987, 924:375), rabbit platelets were washed with platelet-rich plasma which was adjusted with EDTA for anti-aggregation. Counted by Coulter Counter (model, ZM), the platelets were adjusted to a density of 4.5×10^8 platelets/ml by Tyrode's solution which contains 136.8 mM NaCl, 2.8 mM KCl, 1.0 mM CaCl2 and 11.2 mM glucose, and 0. 35% bovine serum albumin. Platelets were agitated at a speed of 1200 rpm to form a suspension. All xanthone derivatives tested were dissolved in DMSO. The concentration of DMSO was limited to 0.5% to prevent its interference to the aggregation reaction. The aggregation was assayed by O'Brin's turbidometer. To determine the degree of aggregation, the absorbance of platelet suspension was referred as 0% aggregation and that of the platelet […] was used for 100%. Lumiaggregometer (Chromo-Log Co. USA) was used to carry out the aggregation assay."}, "[2]": {"test_system": "rat's thoracic aorta", "assay": "contraction of rat's thoracic aorta induced by calcium/high potassium or norepinephrine"}, "[3]": {"test_system": "anesthetized rats", "assay": "blood pressure and heart beat of anesthetized rats after i.v. injection", "assay_type": "in vivo", "settings": "for blood pressure of anesthetized rats: anesthetized rat"}, "[4]": {"target": "angiotension I converting enzyme", "sequence (P12821 30-1306)": "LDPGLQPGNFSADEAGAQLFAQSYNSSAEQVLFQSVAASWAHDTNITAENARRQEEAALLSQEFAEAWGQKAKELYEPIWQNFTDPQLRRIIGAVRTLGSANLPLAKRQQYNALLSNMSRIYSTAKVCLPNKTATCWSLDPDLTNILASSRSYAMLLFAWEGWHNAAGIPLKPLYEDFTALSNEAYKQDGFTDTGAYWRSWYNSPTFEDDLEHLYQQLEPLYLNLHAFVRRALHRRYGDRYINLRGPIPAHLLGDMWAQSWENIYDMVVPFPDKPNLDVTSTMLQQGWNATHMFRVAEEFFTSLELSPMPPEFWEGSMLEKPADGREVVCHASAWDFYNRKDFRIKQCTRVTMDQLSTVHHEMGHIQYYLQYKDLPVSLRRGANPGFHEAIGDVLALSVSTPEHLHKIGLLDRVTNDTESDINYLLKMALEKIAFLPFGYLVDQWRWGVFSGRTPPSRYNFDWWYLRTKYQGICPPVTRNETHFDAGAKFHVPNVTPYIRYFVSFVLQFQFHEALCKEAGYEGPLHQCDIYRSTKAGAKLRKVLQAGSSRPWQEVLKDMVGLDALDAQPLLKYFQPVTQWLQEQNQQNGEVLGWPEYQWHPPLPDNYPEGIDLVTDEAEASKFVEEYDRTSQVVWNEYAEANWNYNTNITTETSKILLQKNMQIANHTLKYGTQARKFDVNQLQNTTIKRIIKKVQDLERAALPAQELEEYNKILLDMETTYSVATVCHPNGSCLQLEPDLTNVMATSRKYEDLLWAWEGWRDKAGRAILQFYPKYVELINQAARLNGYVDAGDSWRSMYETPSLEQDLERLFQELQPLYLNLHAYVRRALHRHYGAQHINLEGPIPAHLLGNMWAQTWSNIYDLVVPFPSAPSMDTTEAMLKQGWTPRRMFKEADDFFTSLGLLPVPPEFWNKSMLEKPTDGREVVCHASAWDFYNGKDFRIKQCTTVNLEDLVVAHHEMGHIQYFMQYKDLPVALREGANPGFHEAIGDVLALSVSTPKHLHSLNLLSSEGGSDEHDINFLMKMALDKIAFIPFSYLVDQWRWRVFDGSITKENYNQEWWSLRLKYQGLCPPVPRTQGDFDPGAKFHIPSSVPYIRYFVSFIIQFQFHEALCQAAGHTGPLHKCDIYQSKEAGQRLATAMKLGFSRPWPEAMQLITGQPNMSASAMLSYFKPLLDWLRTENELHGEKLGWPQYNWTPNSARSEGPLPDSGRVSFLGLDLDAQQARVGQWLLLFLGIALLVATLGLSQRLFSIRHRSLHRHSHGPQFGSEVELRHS", "assay": "inhibition of angiotension I converting enzyme", "assay_type": "biochemical", "settings": "read-out: IC50 toward angiotension I converting enzyme"}, "[5]": {"test_system": "peripheral blood vessels", "settings": "literature report; cited from earlier work"}, "[6]": {"test_system": "atrioventricular conduction", "settings": "literature report; cited from earlier work"}, "[7]": {"test_system": "myocardiac cells", "settings": "literature report; cited from earlier work"}, "[8]": {"test_system": "platelet", "settings": "literature report; cited from earlier work"}}}
{"compound": "CC(=O)Oc1cc2oc3ccccc3c(=O)c2cc1OC(C)=O", "note": "[2,3-dihydroxyxanthone diacetate, 2,3-Dihydroxyxanthone diacetate]", "values": [{"measurement": "effect on inhibiting collagen-induced platelet aggregation, compared with norathyrol", "setting": "[1]", "result": "more significant effect on inhibiting collagen-induced platelet aggregation than norathyrol"}]}
{"compound": "O=c1c2ccccc2oc2cc(O)c(O)cc12", "note": "[2,3-dihydroxyxanthone, 2,3-Dihydroxyxanthone]", "values": [{"measurement": "inhibition of muscle contraction in rat's thoracic aorta induced by calcium ion at high potassium", "setting": "[2]; 100 μg/ml, 1.9 mM calcium ion, 80 mM potassium ion", "result": "significantly inhibit"}, {"measurement": "inhibition of phasic or tonic muscle contraction induced by norepinephrine", "setting": "[2]; 100 μg/ml, 3 mM norepinephrine", "result": "significantly inhibit"}, {"measurement": "blood pressure of anesthetized rats", "setting": "[3]", "result": "significantly lowered the blood pressure"}]}
{"compound": "CC(=O)Oc1cc2oc3c(OC(C)=O)c(OC(C)=O)ccc3c(=O)c2cc1OC(C)=O", "note": "[3 '4 '6 '7-Tetrahydroxyxanthone acetate]", "values": [{"measurement": "effect on inhibiting collagen-induced platelet aggregation, compared with norathyrol", "setting": "[1]", "result": "more significant effect on inhibiting collagen-induced platelet aggregation than norathyrol"}]}
{"compound": "CCCNCC(O)COc1ccc2c(=O)c3ccccc3oc2c1", "note": "(stereo not drawn) [3 [3-(propylamino)-2-hydroxypropoxy]xanthone]", "values": [{"measurement": "heart beat of the anesthetized rat", "setting": "[3]", "result": "slow down the heart beat"}, {"measurement": "blood pressure of anesthetized rats", "setting": "[3]", "result": "significantly reduce the blood pressure"}]}
{"compound": "O=c1c2cc(O)c(O)cc2oc2c(O)c(O)ccc12", "note": "[3,4,6,7-tetrahydroxyxanthone, 3,4,6,7-Tetrahydroxyxanthone]", "values": [{"measurement": "IC50", "setting": "[4]", "result": 35.4, "unit": "µM"}, {"measurement": "blood pressure of anesthetized rats", "setting": "[3]", "result": "reducing the blood pressure"}]}
{"compound": "O=c1c2ccccc2oc2cc(OCC(O)CNC3CCCCC3)ccc12", "note": "(stereo not drawn) [3-[3-(Cyclohexylamino)-2-hydroxypropoxy] xanthone]", "values": [{"measurement": "effect on inhibiting collagen-induced platelet aggregation, compared with norathyrol", "setting": "[1]", "result": "more significant effect on inhibiting collagen-induced platelet aggregation than norathyrol"}]}
{"compound": "CC(C)NCC(O)COc1ccc2c(=O)c3ccccc3oc2c1", "note": "(stereo not drawn) [3[3-(Isopropylamino)-2-hydroxypropoxyl)] xanthone]", "values": [{"measurement": "inhibition of contraction of rat's thoracic aorta induced by high potassium", "setting": "[2]; 10^-4 M, potassium ion 100 mM", "result": "significantly inhibit the contraction"}, {"measurement": "heart beat of the anesthetized rat", "setting": "[3]", "result": "slow down the heart beat"}, {"measurement": "blood pressure of anesthetized rats", "setting": "[3]", "result": "significantly reduce the blood pressure"}]}
{"compound": "O=c1c2cc(O)c(O)cc2oc2cc(O)cc(O)c12", "note": "[norathyriol]", "values": [{"measurement": "relaxation of peripheral blood vessels", "setting": "[5]", "result": "strongly relax the peripheral blood vessels"}, {"measurement": "atrioventricular conduction of a rabbit", "setting": "[6]", "result": "significantly depress the atrioventricular conduction"}, {"measurement": "inhibition of calcium influx in myocardiac cells", "setting": "[7]", "result": "inhibit the calcium influx"}]}
{"compound": "CC(=O)Oc1cc(OC(C)=O)c2c(=O)c3cc(OC(C)=O)c(OC(C)=O)cc3oc2c1", "note": "[norathyrol acetate]", "values": [{"measurement": "inhibition on platelet aggregation", "setting": "[8]", "result": "strong inhibition on platelet aggregation"}]}
{"compound": "tripteroside acetate", "values": [{"measurement": "inhibition on platelet aggregation", "setting": "[8]", "result": "strong inhibition on platelet aggregation"}]}
